The values that follow come from patent US10618900B2, “5-aromatic alkynyl substituted benzamide compound and preparation method, pharmaceutical composition, and use thereof” (SHANGHAI INSTITUTE OF MATERIA MEDICA, CHINESE ACADEMY OF …, priority 2015, dated 2020).

The target of one series is mGluR5 (Homo sapiens (Human), UniProt P41594). As to the kind of experiment: In vitro activity test for mGluR5, HDB Fluo-8 calcium fluorescence detection (FLIPR). The conditions noted are these: HEK293/mGluR5 cell line. It is filed as cell-based. An excerpt:
Experimental instrument: FLIPR Tetra real-time fluorescence imaging analysis system
Experimental method: HDB Fluo-8 calcium fluorescence detection method
Experimental principle: HDB Fluo-8 calcium ion fluorescence detection method is a fast, simple and reliable fluorescence detection method of intracellular calcium concentration changes. The Fluo 8-AM fluorescent dye is an […] derivative of Fluo 8 which can easily penetrate the cell membrane into the cell by culture. The fluorescent dye into the cell will be hydrolyzed by intracellular esterase, the resulting Fluo 8 cannot easily pass through the lipid bimolecular membrane as a polar molecule, and will retain in the cell, and combine with calcium (Ca^2+) to produce fluoresces.
Cells expressing GPCR receptor protein (mGluR5) were first calibrated with a calcium ion sensitive fluorescent probe and then stimulated with the compound. After stimulation, the activation of the receptor lead to the calcium ion mobilization, and the fluorescent probe captures the calcium ion to induce the fluorescence signal. The signal can be read by a fluorescent plate reader. The fluorescent plate reader contains a sampling head for compound addition, thus enabling the change of the fluorescence value of the compound be read in real time. […]

The nature of series [1]: Determination of brain tissue content in rats. To be noted: rat. It is filed as in vivo. The method, then:
Six healthy rats weighing 150-200 g were randomly divided into […] (n=3). The rats were given 10 mL/kg by gavage and intravenous injection, and the dose of gavage was 20 mg/kg, and the dose of intravenous administration was 10 mg/kg. The drug was formulated in DMSO/Tween 80/saline (5:5:90, v/v/v). The rats were fasted for 12 h before testing, and drinked water ad libitum. 2 h after administration, all rats ate together. […]
A physiological saline solution was added (1:10, weight:volume) and the mixture was sufficiently homogenized to form a homogenate. 100 uL homogenate was taken, and 300 uL dichloromethane:methanol (3:2) solution was added, mixed uniformly through vortex oscillation and centrifugated at 14000 rpm for 10 min. The clear liquor was taken. The sample was dried with nitrogen and stored in the 4° C. refrigerator.

Read-outs that look alike come from different tables or passages of the source.

Sequence of mGluR5 (P41594 21-1212): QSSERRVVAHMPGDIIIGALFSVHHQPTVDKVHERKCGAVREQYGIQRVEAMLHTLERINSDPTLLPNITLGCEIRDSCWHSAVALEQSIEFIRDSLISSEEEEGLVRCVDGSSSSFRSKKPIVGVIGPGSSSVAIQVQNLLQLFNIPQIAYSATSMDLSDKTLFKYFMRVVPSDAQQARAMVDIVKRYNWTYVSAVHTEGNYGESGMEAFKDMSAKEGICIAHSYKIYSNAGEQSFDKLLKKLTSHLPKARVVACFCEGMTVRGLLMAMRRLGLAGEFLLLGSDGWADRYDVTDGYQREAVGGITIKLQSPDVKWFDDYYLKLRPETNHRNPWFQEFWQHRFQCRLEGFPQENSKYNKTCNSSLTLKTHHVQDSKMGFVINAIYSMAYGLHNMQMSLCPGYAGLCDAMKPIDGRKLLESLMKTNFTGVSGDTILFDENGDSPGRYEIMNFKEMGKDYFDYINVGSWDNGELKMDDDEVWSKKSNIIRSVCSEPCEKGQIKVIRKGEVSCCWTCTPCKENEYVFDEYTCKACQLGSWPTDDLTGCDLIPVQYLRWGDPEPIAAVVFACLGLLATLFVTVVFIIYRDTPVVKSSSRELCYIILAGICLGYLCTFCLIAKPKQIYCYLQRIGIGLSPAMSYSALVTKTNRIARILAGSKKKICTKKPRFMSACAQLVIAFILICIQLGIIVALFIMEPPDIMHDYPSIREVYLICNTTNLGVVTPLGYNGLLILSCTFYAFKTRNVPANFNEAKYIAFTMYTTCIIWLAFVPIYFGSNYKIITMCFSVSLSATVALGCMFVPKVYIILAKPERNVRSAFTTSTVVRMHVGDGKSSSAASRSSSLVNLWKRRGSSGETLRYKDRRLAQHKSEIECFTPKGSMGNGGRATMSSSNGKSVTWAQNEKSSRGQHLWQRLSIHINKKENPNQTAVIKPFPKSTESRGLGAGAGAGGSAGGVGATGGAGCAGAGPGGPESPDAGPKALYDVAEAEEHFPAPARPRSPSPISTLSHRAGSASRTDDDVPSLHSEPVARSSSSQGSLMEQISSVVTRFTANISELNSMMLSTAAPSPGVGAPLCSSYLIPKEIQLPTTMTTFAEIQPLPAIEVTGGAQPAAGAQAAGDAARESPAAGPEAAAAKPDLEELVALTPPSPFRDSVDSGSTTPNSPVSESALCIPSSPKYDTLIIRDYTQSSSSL

A word on the IC50: it is the concentration at which inhibition is half-maximal. On to `Cc1nc(C#Cc2ccc(F)c(C(=O)Nc3cccnc3)c2)cs1` [ZD043], for which, on mGluR5, the IC50 was determined as 5.6 nM. The concentration at 0.25 h in series [1] (cerebrospinal fluid, sampling time 0.25 h, read-out: Cerebrospinal fluid) was 25.5 ng/mL; in series [1] (plasma, sampling time 0.25 h, read-out: Plasma) it was 1240 ng/mL; in series [1] (sampling time 0.25 h, read-out: brain) it was 589 ng/g. Besides, the concentration at 1 h in series [1] (cerebrospinal fluid, sampling time 1 h, read-out: Cerebrospinal fluid) worked out at 21.3 ng/mL; in series [1] (plasma, sampling time 1 h, read-out: Plasma), 1130 ng/mL; in series [1] (sampling time 1 h, read-out: brain), 559 ng/g. The concentration at 3 h in series [1] (cerebrospinal fluid, sampling time 3 h, read-out: Cerebrospinal fluid) was 7.99 ng/mL; in series [1] (plasma, sampling time 3 h, read-out: Plasma), 358 ng/mL; in series [1] (sampling time 3 h, read-out: brain), 164 ng/g. Further, the “drug concentration ratio in the brain and plasma” value in series [1] (after administration) is reported as 1/2. Moreover, the B/P in series [1] (sampling time 0.25 h) and in series [1] (sampling time 1 h) was 1/2 throughout. Moreover, the Csf/P in series [1] (sampling time 1 h) is on record as 1/53; in series [1] (sampling time 3 h), 1/45.
